Experimental data reported in the supplement of paper PMC8671470.
Where a name gives a salt, the structure may show the parent alone.

Experiments:
Conditions in all cases: 72 h
HL-60 [1] = experiment: cell viability (% survival relative to DMSO control); higher = less cytotoxic
In short: (§1)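 HL-60 cells in RPMI 1640 with 10% FBS were rescreened against the full library on 384-well plates at five tenfold concentrations, 1–10,000 nM, in duplicate. Each screen was run with DMSO or 100 nM of one of three metabolic inhibitors, for 72 h at 37 °C, 5% CO2. Viability was read by CellTiter-Glo and normalised to DMSO and 10 μM proteasome-inhibitor wells. Where given, area under the curve came from four-parameter log-logistic fits (drc, PharmacoGx).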

HL-60 [2] = experiment: area under dose-response curve (viability, 1 nM-10 uM) (fraction (0-1)); higher = more sensitive
In short: as §1

BV-173 [3] = system: BV-173
In short: (§2)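 The IC50 was derived from log-logistic dose–response fitting. Each of fifteen myeloid leukaemia cell lines, seeded in RPMI 1640 within its linear growth range, was exposed in 384-well plates to five tenfold doses (1 to 10,000 nM) in duplicate for 72 h at 37 °C and 5% CO2. Luminescent ATP viability readings were normalised to vehicle and to a positive control at 10 µM before four-parameter curve fitting.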

HEL = system: HEL
In short: as §2

HL-60 [4] = system: HL-60
In short: as §2

K-562 [5] = system: K-562
In short: as §2

KCL-22 = system: KCL-22
In short: as §2

KG-1 = system: KG-1
In short: as §2

KU-812 [6] = system: KU-812
In short: as §2

LAMA-84 [7] = system: LAMA-84
In short: as §2

ML-2 = system: ML-2
In short: as §2

MOLM-13 [8] = system: MOLM-13
In short: as §2

MV4-11 [9] = system: MV4-11
In short: as §2

Mono-Mac-6 [10] = system: Mono-Mac-6
In short: as §2

NOMO-1 [11] = system: NOMO-1
In short: as §2

SHI-1 [12] = system: SHI-1
In short: as §2

THP-1 [13] = system: THP-1
In short: as §2

BV-173 [14] = experiment: cell viability (% survival relative to DMSO control, bortezomib = 0%); higher = less cytotoxic
In short: (§3)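 In 384-well plates pre-printed with compounds at 1, 10, 100, 1000 or 10000 nM, duplicate wells received cells from 10 AML and 5 CML lines at densities within the linear growth range. The plates stayed at 37 °C with 5% CO2 for 72 h before CellTiter-Glo luminescence was recorded. Each entry is averaged percent survival. Scaling placed vehicle at 100% and a 10 µM positive control at 0%.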

HL-60 [15] = experiment: as above
In short: as §3

K-562 [16] = experiment: as above
In short: as §3

KU-812 [17] = experiment: as above
In short: as §3

LAMA-84 [18] = experiment: as above
In short: as §3

MOLM-13 [19] = experiment: as above
In short: as §3

MV4-11 [20] = experiment: as above
In short: as §3

Mono-Mac-6 [21] = experiment: as above
In short: as §3

NOMO-1 [22] = experiment: as above
In short: as §3

SHI-1 [23] = experiment: as above
In short: as §3

THP-1 [24] = experiment: as above
In short: as §3

Cc1cc(CS(=O)(=O)c2ccccc2)cc(OCc2ccc(CN3CCC[C@@H]3CO)cc2)c1 [PF 543 hydrochloride]
cell viability [%], HL-60 [1]
Conditions | 0.001 µM | 0.01 µM | 0.1 µM | 1 µM | 10 µM
co-treatment: AZD3965 100 nM | 95.8 | 101 | 100.5 | 95.55 | 96.1
co-treatment: DMSO vehicle | 99.4 | 100 | 103 | 99.8 | 103
co-treatment: GSK2194069 100 nM | 81.7 | 94.56 | 96.8 | 95.1 | 92.2
co-treatment: pictilisib 100 nM | 79.4 | 97.3 | 93.9 | 99.7 | 96.7

HL-60 [2]
Conditions | area under dose-response curve
co-treatment: AZD3965 100 nM | < 0.0301
co-treatment: DMSO vehicle | < 0.0301
co-treatment: GSK2194069 100 nM | < 0.0301
co-treatment: pictilisib 100 nM | < 0.0301

CC/C=C\C[C@H]1C(=O)CC[C@@H]1CC(=O)OC [methyl jasmonate]
cell viability [%], HL-60 [1]
Conditions | 0.001 µM | 0.01 µM | 0.1 µM | 1 µM | 10 µM
co-treatment: AZD3965 100 nM | 98.2 | 106 | 100.7 | 105 | 106
co-treatment: DMSO vehicle | 101 | 99.7 | 97.6 | 102.5 | 102
co-treatment: GSK2194069 100 nM | 95.5 | 99.5 | 98.1 | 93.3 | 105
co-treatment: pictilisib 100 nM | 96.58 | 104 | 101 | 109 | 99.6

HL-60 [2]
Conditions | area under dose-response curve
co-treatment: AZD3965 100 nM | < 0.0301
co-treatment: DMSO vehicle | < 0.0301
co-treatment: GSK2194069 100 nM | < 0.0301
co-treatment: pictilisib 100 nM | < 0.0301

CCC(C)(C)C(=O)O[C@H]1C[C@@H](C)C=C2C=C[C@H](C)[C@H](CC[C@@H]3C[C@@H](O)CC(=O)O3)[C@H]21 [Simvastatin]
Conditions | IC50 (cell viability) [µM]
BV-173 [3] | > 10
HEL | > 10
HL-60 [4] | > 10
K-562 [5] | > 10
KCL-22 | > 10
KG-1 | > 10
KU-812 [6] | > 10
LAMA-84 [7] | > 10
ML-2 | > 10
MOLM-13 [8] | > 10
MV4-11 [9] | > 10
Mono-Mac-6 [10] | > 10
NOMO-1 [11] | > 10
SHI-1 [12] | > 10
THP-1 [13] | > 10

CCOC(=O)c1ccc(-c2ccc(OC(=O)N(C)Cc3cccc(-c4ccncc4)c3)cc2)cc1 [WWL 113]
cell viability [%], HL-60 [1]
Conditions | 0.001 µM | 0.01 µM | 0.1 µM | 1 µM | 10 µM
co-treatment: AZD3965 100 nM | 99.55 | 98.5 | 94 | 97.8 | 101
co-treatment: DMSO vehicle | 106 | 102 | 98.3 | 102.3 | 102
co-treatment: GSK2194069 100 nM | 99.6 | 96 | 86.5 | 97.09 | 101
co-treatment: pictilisib 100 nM | 101.2 | 103 | 85.6 | 96.7 | 101

O=C(Nc1ccccc1)c1cc([N+](=O)[O-])ccc1Cl [GW9662]
Conditions | IC50 (cell viability) [µM]
BV-173 [3] | 8.53
HL-60 [4] | > 10
K-562 [5] | > 10
KU-812 [6] | > 10
LAMA-84 [7] | > 10
MOLM-13 [8] | > 10
MV4-11 [9] | 8.81
Mono-Mac-6 [10] | > 10
NOMO-1 [11] | > 10
SHI-1 [12] | > 10
THP-1 [13] | > 10

cell viability [%]
Conditions | 1 nM | 10 nM | 100 nM | 1000 nM | 10000 nM
BV-173 [14] | 103 | 95.7 | 113 | 91.8 | 56.6
HL-60 [15] | 90.2 | 98.8 | 98.2 | 106 | 72.6
K-562 [16] | 112 | 102 | 105 | 108 | 65.4
KU-812 [17] | 97.9 | 102 | 113 | 87.3 | 71.7
LAMA-84 [18] | 98.7 | 95.9 | 110 | 101 | 90.5
MOLM-13 [19] | 109 | 97 | 95.5 | 122 | 80.8
MV4-11 [20] | 102 | 93.3 | 108 | 115 | 42.9
Mono-Mac-6 [21] | 101 | 107 | 110 | 112 | 115
NOMO-1 [22] | 95.6 | 96.4 | 97.3 | 102 | 91.8
SHI-1 [23] | 111 | 104 | 103 | 107 | 93.8
THP-1 [24] | 103 | 101 | 102 | 93.7 | 77.2
